Tests used:
[1] = Stability test of crystal forms in high-temperature environment at 80° C.±2° C.; type: physicochemical
Description: Appropriate amounts of the crystal form I and crystal form II were separately placed in a high-temperature environment at 80° C.±2° C. for stability experiments, and the experimental results were shown in Table 1.

[2] = Solubility in ethanol; type: physicochemical; conditions: different temperatures
Description: (§1) 2. Solubility Research • (1) 50 mg of the crystal form I and crystal form II were separately added to a test tube, slowly added with ethanol dropwise at different temperatures while conducting vibration until completely dissolved. Weighing was conducted and a total mass was recorded, converted into volume, expressed as mg/mL. The experimental results were shown in FIG. 11 and FIG. 12. • (2) 50 mg of the crystal form I and crystal form II were separately added to a test tube, slowly added with water dropwise at different temperatures while conducting vibration until completely dissolved. Weighing was conducted and a total mass was recorded, converted into volume, expressed as mg/mL.

[3] = Solubility in water; type: physicochemical; conditions: different temperatures
Description: as §1

[4] = test system: tobacco seedlings; assay: Promoting growth of tobacco seedlings (leaf spray, leaf area growth rate); type: in vivo; conditions: for Growth-promoting effect (in words): 7 d after treatment; for 7-day leaf area growth rate (%): leaf spray, 7 d
Description: The example of the present disclosure provided use of the novel crystal form I and the novel crystal form II in promoting plant growth, specifically an experiment of promoting growth of tobacco seedlings was taken as an example, the steps were as follows:
In the present disclosure, the novel crystal form I and the novel crystal form II each were prepared with anhydrous ethanol into a 10 mg/ml mother solution, and used immediately during the experiment.
Tobacco seedlings with a seedling age of 7 d were transplanted and planted in a cultivation room, and the seedlings were subjected to recovery for 2 d before testing. After the treatment agent was formulated according to the experimental design, the leaves of the tobacco seedlings were evenly sprayed, and each treatment was repeated 3 times, with 2 plants in each repetition, that is, 6 seedlings in each treatment. […] The RGB AREA_MM parameter (leaf area/mm^2) of the tobacco was recorded with a plant phenotype instrument before and 7 d […], and a growth rate of the leaf area was calculated to evaluate a growth-promoting effect of the drug. The formula for calculating a leaf area growth rate was as follows: Growth rate (%)=(final leaf area−initial leaf area)×100%/initial leaf area

[5] = test system: tobacco seedlings; assay: Promoting cold resistance of tobacco (chlorophyll fluorescence after 4° C. cold injury); type: in vivo
Description: The example of the present disclosure provided use of the novel crystal form II in promoting stress resistance of plants, specifically an experiment of promoting cold resistance of tobacco was taken as an example, the steps were as follows:
In the present disclosure, the novel crystal form II was prepared with anhydrous ethanol into a 10 mg/ml mother solution, and used immediately during the experiment.
After the treatment agents were prepared according to Table 6, the leaves of the tobacco seedlings were evenly sprayed in the morning. […] After 1 d of recovery, cold injury (4° C.) treatment was conducted, while other conditions remained the same as those during normal culture. The chlorophyll fluorescence QY-max parameter (theoretical maximum photosynthetic capacity) and Fv/Fm (maximum photon yield of PSII) of tobacco were recorded before drug treatment, after 6 h and 24 h of low-temperature treatment, and after 24 h of recovery at room temperature (25° C.) separately with a plant phenotype instrument.
QY-max represents the theoretical maximum photosynthetic capacity of plants, and the smaller its reduction rate, the better the plant's low-temperature resistance. Fv/Fm-lss represents the maximum photon yield of PSII, similar to QY-max, the smaller its reduction rate, the better the plant's low-temperature resistance. […] Afterwards, each treatment was placed at room temperature (25° C.) for recovery.

[6] = test system: corn seeds; assay: Immersing corn seeds to promote germination and growth of corn; type: in vivo; conditions: for Bud vigor index / Root vigor index / Germination rate (%): 7th day; for Germination rate (%): seeds immersed 24 h
Description: The example of the present disclosure provided use of the novel crystal form I and the novel crystal form II in promoting plant growth, specifically an experiment of immersing corn seeds to promote germination and growth of corn was taken as an example, the steps were as follows:
In the present disclosure, the novel crystal form I was prepared with anhydrous ethanol into a 10 mg/ml mother solution, and used immediately during the experiment.
The agents were prepared according to the experimental design. 20 normal plump corn seeds were selected, placed in the agent, and immersed at 26° C. for 24 h. The seeds were washed with water, placed in a culture box and placed in a constant-temperature incubator for germination. The germination was conducted in 2 periods: 14 h of light illumination, at 28° C.; 10 h in the dark, at 25° C., and for 7 d. Each treatment was repeated 3 times. During the whole experiment, 5 ml of water was regularly added with a pipette at 9:00 every day to keep the culture box moist. After 7 days, the germination rate was counted, the shoot length and root length were measured, and the root vigor and shoot vigor were calculated. Germination rate=germinated number of seeds treated on 7th day/total number of treated seeds×100%; Bud vigor index=germination rate of 7th day×seedling bud length of 7th day; Root vigor index=germination rate of 7th day×seedling root length of 7th day.

[7] = 0.003 ppm, low-temperature (4° C.) treatment for 6 h
[8] = 0.003 ppm, low-temperature (4° C.) treatment for 24 h
[9] = 0.003 ppm, room-temperature (25° C.) recovery for 24 h
[10] = 0.03 ppm, low-temperature (4° C.) treatment for 6 h
[11] = 0.03 ppm, low-temperature (4° C.) treatment for 24 h
[12] = 0.03 ppm, room-temperature (25° C.) recovery for 24 h
[13] = 0.3 ppm, low-temperature (4° C.) treatment for 6 h
[14] = 0.3 ppm, low-temperature (4° C.) treatment for 24 h
[15] = 0.3 ppm, room-temperature (25° C.) recovery for 24 h

## CC(C)(O)CC[C@@H](O)[C@](C)(O)C1CC[C@@]2(O)[C@H]3CC(=O)[C@@H]4C[C@@H](O)[C@@H](O)C[C@]4(C)[C@H]3CC[C@]12C (single isomer, unassigned) [Novel crystal form II]
[1]
  Stability in high-temperature environment (in words): highly stable in the high-temperature environment, and no crystal form change occurred
[1]; test time 0 d
  Content (%): 99.87%
  Content of other substances (%): 0.13%
  XRPD: Unchanged
[1]; test time 5 d
  Content (%): 99.84%
  Content of other substances (%): 0.16%
  XRPD: Unchanged
[1]; test time 10 d
  Content (%): 99.87%
  Content of other substances (%): 0.13%
  XRPD: Unchanged
[2]
  Solubility in ethanol (in words): desirable solubility
[3]
  Solubility in water (in words): desirable solubility
[4]; 0.003 ppm
  Growth-promoting effect (in words): obvious growth-promoting effects
  7-day leaf area growth rate (%): 169.02 ± 0.26%
[4]; 0.03 ppm
  7-day leaf area growth rate (%): 153.44 ± 0.19%
[4]; 0.3 ppm
  7-day leaf area growth rate (%): 150.31 ± 0.39%
[5]; [7]
  Fv/Fm-lss change rate (%): −30.1 ± 0.22%
  QY-max change rate (%): −10.4 ± 0.13%
[5]; [8]
  Fv/Fm-lss change rate (%): −46.1 ± 0.28%
  QY-max change rate (%): −31.0 ± 0.18%
[5]; [9]
  Fv/Fm-lss change rate (%): −16.2 ± 0.27%
  QY-max change rate (%): −10.0 ± 0.24%
[5]; 0.03 ppm, after 6 h of low-temperature treatment
  Reduction rate of QY-max and Fv/Fm-lss versus water control (in words): significantly lower than that of the water control
[5]; 0.03 ppm, after 24 h of recovery at room temperature
  Recovery effect, comparison of concentrations (in words): the best
[5]; [10]
  Fv/Fm-lss change rate (%): −14.3 ± 0.13%
  QY-max change rate (%): −3.6 ± 0.33%
[5]; [11]
  Fv/Fm-lss change rate (%): −33.4 ± 0.12%
  QY-max change rate (%): −27.6 ± 0.16%
[5]; [12]
  Fv/Fm-lss change rate (%): 0.3 ± 0.16%
  QY-max change rate (%): −0.6 ± 0.18%
[5]; [13]
  Fv/Fm-lss change rate (%): −26.4 ± 0.27%
  QY-max change rate (%): −7.9 ± 0.25%
[5]; [14]
  Fv/Fm-lss change rate (%): −44.4 ± 0.25%
  QY-max change rate (%): −30.0 ± 0.27%
[5]; [15]
  Fv/Fm-lss change rate (%): −4.5 ± 0.21%
  QY-max change rate (%): −5.2 ± 0.13%
[5]; each concentration, after 24 h of recovery at room temperature
  Recovery effect versus clean water control (in words): better than that of the clean water control
[5]; in vivo
  Low-temperature resistance, summary (in words): bioactivity of anti-low temperature

## CC(C)(O)CC[C@@H](O)[C@](C)(O)C1CC[C@@]2(O)[C@H]3CC(=O)[C@@H]4C[C@@H](O)[C@@H](O)C[C@]4(C)[C@H]3CC[C@]12C (single isomer, unassigned) [Novel crystal form I]
[1]
  Stability in high-temperature environment (in words): highly stable in the high-temperature environment, and no crystal form change occurred
[1]; test time 0 d
  Content (%): 99.98%
  Content of other substances (%): 0.02%
  XRPD: Unchanged
[1]; test time 5 d
  Content (%): 99.93%
  Content of other substances (%): 0.07%
  XRPD: Unchanged
[1]; test time 10 d
  Content (%): 99.96%
  Content of other substances (%): 0.04%
  XRPD: Unchanged
[2]
  Solubility in ethanol (in words): desirable solubility
[3]
  Solubility in water (in words): desirable solubility
[4]; 0.003 ppm
  Growth-promoting effect (in words): obvious growth-promoting effects
  7-day leaf area growth rate (%): 179.02 ± 0.15%
[4]; 0.03 ppm
  7-day leaf area growth rate (%): 166.45 ± 0.18%
[4]; 0.3 ppm
  7-day leaf area growth rate (%): 145.98 ± 0.39%
[6]; 0.003 ppm
  Bud vigor index: 7.77 ± 0.36
  Root vigor index: 8.80 ± 0.29
  Germination rate (%): 72.12 ± 1.15%
[6]; 0.03 ppm
  Effect on root and bud vigor indexes versus control CK (in words): best effect, which was obviously better than that of the control CK
  Germination effect on corn compared with the water control (in words): germination-promoting effect
  Bud vigor index: 10.93 ± 0.17
  Root vigor index: 10.89 ± 0.24
  Germination rate (%): 77.34 ± 1.99%
[6]; 0.3 ppm
  Bud vigor index: 9.26 ± 0.24
  Root vigor index: 9.77 ± 0.53
  Germination rate (%): 75.38 ± 2.37%
[6]; in vivo
  Effect on root and bud vigor indexes (in words): effect of improving the root vigor index and bud vigor index
